± gives the standard deviation of the averaged measurements.
Tested on: HL-60
Assay: cell viability (% survival relative to DMSO control); higher = less cytotoxic
Settings: 0.1 µM; 72 h; co-treatment: pictilisib 100 nM
Procedure, shortened: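 Area under the curve, where listed, was derived from four-parameter log-logistic fits with drc and PharmacoGx. These fits used CellTiter-Glo viability from HL-60 cells in RPMI 1640 with 10% FBS, normalised to DMSO wells and wells holding 10 μM proteasome inhibitor. The full library was rescreened on 384-well plates in duplicate at five tenfold concentrations, 1–10,000 nM, with DMSO or 100 nM of one of three metabolic inhibitors, for 72 h at 37 °C, 5% CO2.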

Structure (SMILES)	cell viability [%]
O=c1[nH]c(=O)n([C@H]2C[C@H](O)[C@@H](CO)O2)cc1I [Idoxuridine]	97.3 ± 2.2
CC1Cc2ccccc2N1NC(=O)c1ccc(Cl)c(S(N)(=O)=O)c1 (stereo not drawn) [Indapamide]	97.14 ± 0.93
NS(=O)(=O)c1ccc(S(=O)(=O)Nc2cccc3c(Cl)c[nH]c23)cc1 [Indisulam]	104 ± 2.7
COc1ccc2c(c1)c(CC(=O)O)c(C)n2C(=O)c1ccc(Cl)cc1 [Indomethacine]	93.2 ± 1.9
Cn1cc(C[C@@H](N)C(=O)O)c2ccccc21 [Indoximod]	120 ± 22

Same assay, conditions: 1 µM; 72 h; co-treatment: AZD3965 100 nM

Structure (SMILES)	cell viability [%]
OC[C@H]1N[C@@H](c2c[nH]c3c(O)ncnc23)[C@H](O)[C@@H]1O [Forodesine]	101 ± 3
O=c1oc2c(cc1O)oc(=O)c1cc(O)c(O)c(O)c12 [Galloflavin]	112 ± 12
Nc1ccn([C@@H]2O[C@H](CO)[C@@H](O)C2(F)F)c(=O)n1 [Gemcitabine]	4.29 ± 1.1
N[C@@H](CCC(=O)N[C@@H](CS)C(=O)NCC(=O)O)C(=O)O [Glutathione]	102 ± 6.2
Clc1cc(Cl)c(OCC#CI)cc1Cl [Haloprogin]	99.73 ± 0.77
O=c1[nH]c(=O)n([C@H]2C[C@H](O)[C@@H](CO)O2)cc1I [Idoxuridine]	97.9 ± 8.4
CC1Cc2ccccc2N1NC(=O)c1ccc(Cl)c(S(N)(=O)=O)c1 (stereo not drawn) [Indapamide]	103.1 ± 0.94
NS(=O)(=O)c1ccc(S(=O)(=O)Nc2cccc3c(Cl)c[nH]c23)cc1 [Indisulam]	110 ± 4.3
COc1ccc2c(c1)c(CC(=O)O)c(C)n2C(=O)c1ccc(Cl)cc1 [Indomethacine]	103 ± 1.9
Cn1cc(C[C@@H](N)C(=O)O)c2ccccc21 [Indoximod]	106 ± 7.9

Same assay, conditions: 1 µM; 72 h; co-treatment: DMSO vehicle

Structure (SMILES)	cell viability [%]
OC[C@H]1N[C@@H](c2c[nH]c3c(O)ncnc23)[C@H](O)[C@@H]1O [Forodesine]	99.2 ± 1.5
O=c1oc2c(cc1O)oc(=O)c1cc(O)c(O)c(O)c12 [Galloflavin]	109 ± 4.7
Nc1ccn([C@@H]2O[C@H](CO)[C@@H](O)C2(F)F)c(=O)n1 [Gemcitabine]	6.18 ± 1.1
N[C@@H](CCC(=O)N[C@@H](CS)C(=O)NCC(=O)O)C(=O)O [Glutathione]	98.63 ± 0.24
Clc1cc(Cl)c(OCC#CI)cc1Cl [Haloprogin]	104 ± 7.4
O=c1[nH]c(=O)n([C@H]2C[C@H](O)[C@@H](CO)O2)cc1I [Idoxuridine]	94.9 ± 5
CC1Cc2ccccc2N1NC(=O)c1ccc(Cl)c(S(N)(=O)=O)c1 (stereo not drawn) [Indapamide]	99.5 ± 3.2
NS(=O)(=O)c1ccc(S(=O)(=O)Nc2cccc3c(Cl)c[nH]c23)cc1 [Indisulam]	104 ± 3.4
COc1ccc2c(c1)c(CC(=O)O)c(C)n2C(=O)c1ccc(Cl)cc1 [Indomethacine]	101 ± 2.7
Cn1cc(C[C@@H](N)C(=O)O)c2ccccc21 [Indoximod]	110 ± 9.6

Same assay, conditions: 1 µM; 72 h; co-treatment: GSK2194069 100 nM

Structure (SMILES)	cell viability [%]
OC[C@H]1N[C@@H](c2c[nH]c3c(O)ncnc23)[C@H](O)[C@@H]1O [Forodesine]	98.2 ± 2.8
O=c1oc2c(cc1O)oc(=O)c1cc(O)c(O)c(O)c12 [Galloflavin]	105 ± 8
Nc1ccn([C@@H]2O[C@H](CO)[C@@H](O)C2(F)F)c(=O)n1 [Gemcitabine]	5.54 ± 1.7
N[C@@H](CCC(=O)N[C@@H](CS)C(=O)NCC(=O)O)C(=O)O [Glutathione]	101 ± 11
Clc1cc(Cl)c(OCC#CI)cc1Cl [Haloprogin]	105 ± 11
O=c1[nH]c(=O)n([C@H]2C[C@H](O)[C@@H](CO)O2)cc1I [Idoxuridine]	98.6 ± 4
CC1Cc2ccccc2N1NC(=O)c1ccc(Cl)c(S(N)(=O)=O)c1 (stereo not drawn) [Indapamide]	98.3 ± 8.1
NS(=O)(=O)c1ccc(S(=O)(=O)Nc2cccc3c(Cl)c[nH]c23)cc1 [Indisulam]	105 ± 1.5
COc1ccc2c(c1)c(CC(=O)O)c(C)n2C(=O)c1ccc(Cl)cc1 [Indomethacine]	99.8 ± 6.3
Cn1cc(C[C@@H](N)C(=O)O)c2ccccc21 [Indoximod]	113 ± 31

Same assay, conditions: 1 µM; 72 h; co-treatment: pictilisib 100 nM

Structure (SMILES)	cell viability [%]
OC[C@H]1N[C@@H](c2c[nH]c3c(O)ncnc23)[C@H](O)[C@@H]1O [Forodesine]	95.3 ± 3.3
O=c1oc2c(cc1O)oc(=O)c1cc(O)c(O)c(O)c12 [Galloflavin]	107 ± 11
Nc1ccn([C@@H]2O[C@H](CO)[C@@H](O)C2(F)F)c(=O)n1 [Gemcitabine]	5.09 ± 0.17
N[C@@H](CCC(=O)N[C@@H](CS)C(=O)NCC(=O)O)C(=O)O [Glutathione]	96.3 ± 9.8
Clc1cc(Cl)c(OCC#CI)cc1Cl [Haloprogin]	105 ± 14
O=c1[nH]c(=O)n([C@H]2C[C@H](O)[C@@H](CO)O2)cc1I [Idoxuridine]	93.8 ± 0.58
CC1Cc2ccccc2N1NC(=O)c1ccc(Cl)c(S(N)(=O)=O)c1 (stereo not drawn) [Indapamide]	92.8 ± 8.5
NS(=O)(=O)c1ccc(S(=O)(=O)Nc2cccc3c(Cl)c[nH]c23)cc1 [Indisulam]	112.7 ± 0.37
COc1ccc2c(c1)c(CC(=O)O)c(C)n2C(=O)c1ccc(Cl)cc1 [Indomethacine]	97.1 ± 1.1
Cn1cc(C[C@@H](N)C(=O)O)c2ccccc21 [Indoximod]	123 ± 29

Same assay, conditions: 10 µM; 72 h; co-treatment: AZD3965 100 nM

Structure (SMILES)	cell viability [%]
OC[C@H]1N[C@@H](c2c[nH]c3c(O)ncnc23)[C@H](O)[C@@H]1O [Forodesine]	94 ± 6.8
O=c1oc2c(cc1O)oc(=O)c1cc(O)c(O)c(O)c12 [Galloflavin]	99.6 ± 2.8
Nc1ccn([C@@H]2O[C@H](CO)[C@@H](O)C2(F)F)c(=O)n1 [Gemcitabine]	3.15 ± 0.62
N[C@@H](CCC(=O)N[C@@H](CS)C(=O)NCC(=O)O)C(=O)O [Glutathione]	99.8 ± 1.6
Clc1cc(Cl)c(OCC#CI)cc1Cl [Haloprogin]	3.01 ± 0.9
O=c1[nH]c(=O)n([C@H]2C[C@H](O)[C@@H](CO)O2)cc1I [Idoxuridine]	102 ± 2.1
CC1Cc2ccccc2N1NC(=O)c1ccc(Cl)c(S(N)(=O)=O)c1 (stereo not drawn) [Indapamide]	95.9 ± 1.7
NS(=O)(=O)c1ccc(S(=O)(=O)Nc2cccc3c(Cl)c[nH]c23)cc1 [Indisulam]	89.8 ± 4.5
COc1ccc2c(c1)c(CC(=O)O)c(C)n2C(=O)c1ccc(Cl)cc1 [Indomethacine]	91.6 ± 14
Cn1cc(C[C@@H](N)C(=O)O)c2ccccc21 [Indoximod]	101 ± 2.1

Same assay, conditions: 10 µM; 72 h; co-treatment: DMSO vehicle

Structure (SMILES)	cell viability [%]
OC[C@H]1N[C@@H](c2c[nH]c3c(O)ncnc23)[C@H](O)[C@@H]1O [Forodesine]	100.1 ± 0.95
O=c1oc2c(cc1O)oc(=O)c1cc(O)c(O)c(O)c12 [Galloflavin]	99.28 ± 0.39
Nc1ccn([C@@H]2O[C@H](CO)[C@@H](O)C2(F)F)c(=O)n1 [Gemcitabine]	3.121 ± 0.023
